Measurements from patent publication US20130059730A1, “INSECTICIDAL COMBINATION” (Kyoyu Agri Company, Ltd., priority 2010, published 2013).

Tests used:
Type in all cases: in vivo
[1] = tested on: Two-spotted spider mite (Tetranychus urticae), sensitive strain to hexythiazox, pyridaben and/or fenpyroximate; test: Example 5: two-spotted spider mite, sensitive strain, egg/larva efficacy (other ratio)
Source text: (§1) The action to be expected E for a given active ingredient combination obeys the so-called COLBY formula and can be calculated as follows (COLBY, S.R. “Calculating synergistic and antagonistic responses of herbicide combination”. Weeds, Vol. 15, pages 20-22; 1967): • ppm=milligrams of active ingredient (=a.i.) per liter of spray mixture • X=% action by active ingredient A) using p ppm of active ingredient • Y=% action by active ingredient B) using q ppm of active ingredient.
(§2) According to COLBY, the expected (additive) action of active ingredients A)+B) using p+q ppm of active ingredient is
(§3) If the action actually observed (0) is greater than the expected action (E), then the action of the combination is super-additive, i.e. there is a synergistic effect.
(§4) Two-spotted spider mites (sensitive strain to hexythiazox, pyridaben and/or fenpyroximate) were allowed to oviposit on leaves of kidney beans for one day, and the female adults were then removed. The leaves were sprayed by a rotating application tower at 200 ml/m^2 of the predetermined concentration prepared from a product (e.g. the mixture according to the instant invention and the solo active ingredients). Seven days thereafter, the number of unhatched eggs and dead larvae was examined, whereby the live egg rate (%) was determined. The efficacy (observed %) against eggs and larvae is, therefore, calculated based on the following formula: […]
The Example 5 is conducted with use of two-spotted spider mite (sensitive strain to hexythiazox, pyridaben and/or fenpyroximate) in a manner similar to that of Example 1.

[2] = tested on: Two-spotted spider mite (Tetranychus urticae), sensitive strain to hexythiazox, pyridaben and/or fenpyroximate; test: Example 1: two-spotted spider mite egg/larva efficacy on sprayed kidney bean leaves; conditions: 7 days after spray
Source text: as §1, §2, §3, §4

[3] = tested on: Kanzawa spider mite (Tetranychus kanzawai), resistant strain to hexythiazox, pyridaben and/or fenpyroximate; test: Example 4: kanzawa spider mite, resistant strain, egg/larva efficacy
Source text: as §1, §2, §3, §4
The Example 4 is conducted with use of kanzawa spider mite (resistant strain to hexythiazox, pyridaben and/or fenpyroximate) in a manner similar to that of Example 1.

[4] = tested on: Kanzawa spider mite (Tetranychus kanzawai), sensitive strain to hexythiazox, pyridaben and/or fenpyroximate; test: Example 3: kanzawa spider mite, sensitive strain, egg/larva efficacy
Source text: as §1, §2, §3, §4
The Example 3 is conducted with use of kanzawa spider mite (sensitive strain to hexythiazox, pyridaben and/or fenpyroximate) in a manner similar to that of Example 1.

[5] = tested on: Two-spotted spider mite (Tetranychus urticae), resistant strain to hexythiazox, pyridaben and/or fenpyroximate; test: Example 2: two-spotted spider mite, resistant strain, egg/larva efficacy
Source text: as §1, §2, §3, §4
The Example 2 is conducted with use of two-spotted spider mite (resistant strain to hexythiazox, pyridaben and/or fenpyroximate) in a manner similar to that of Example 1.

Compound	observed (%) efficacy against eggs and larvae ([1]; rate 0.19 ppm) [%]	observed (%) efficacy against eggs and larvae ([1]; rate 0.38 ppm) [%]	observed (%) efficacy against eggs and larvae ([2]; rate 0.06 ppm) [%]	observed (%) efficacy against eggs and larvae ([2]; rate 0.11 ppm) [%]	observed (%) efficacy against eggs and larvae ([3]; rate 0.23 ppm) [%]	observed (%) efficacy against eggs and larvae ([3]; rate 0.45 ppm) [%]	observed (%) efficacy against eggs and larvae ([4]; rate 0.06 ppm) [%]	observed (%) efficacy against eggs and larvae ([4]; rate 0.11 ppm) [%]	observed (%) efficacy against eggs and larvae ([5]; rate 0.23 ppm) [%]	observed (%) efficacy against eggs and larvae ([5]; rate 0.45 ppm) [%]	observed (%) efficacy against eggs and larvae ([1]; rate 0.06 ppm) [%]	observed (%) efficacy against eggs and larvae ([1]; rate 0.13 ppm) [%]	observed (%) efficacy against eggs and larvae ([2]; rate 0.16 ppm) [%]	observed (%) efficacy against eggs and larvae ([2]; rate 0.31 ppm) [%]	observed (%) efficacy against eggs and larvae ([3]; rate 0.63 ppm) [%]	observed (%) efficacy against eggs and larvae ([3]; rate 1.25 ppm) [%]	observed (%) efficacy against eggs and larvae ([4]; rate 0.16 ppm) [%]	observed (%) efficacy against eggs and larvae ([4]; rate 0.31 ppm) [%]	observed (%) efficacy against eggs and larvae ([5]; rate 0.63 ppm) [%]	observed (%) efficacy against eggs and larvae ([5]; rate 1.25 ppm) [%]
abamectin	8.7	5.0	0.0	9.4	6.3	43.6	2.1	1.3	0.9	6.4	–	–	–	–	–	–	–	–	–	–
CCOc1cc(C(C)(C)C)ccc1C1COC(c2c(F)cccc2F)=N1 (centres unmarked) [Etoxazole, etoxazole]	–	–	–	–	–	–	–	–	–	–	0.0	15.1	40.6	77.7	19.4	70.1	13.6	60.8	9.3	10.5
